Results published in the NIST ThermoML archive (doi:10.1016/j.fluid.2013.05.016).
± gives the expanded uncertainty stated by the source.

Settings: Liquid; for mass density: 298.2 K, 101.33 kPa, Vibrating tube method; for vapor or sublimation pressure / Normal boiling temperature: Ebulliometric method (Recirculating still)

SMILES	mass density [kg/m3]	Normal boiling temperature [°C]	vapor or sublimation pressure (423.8 K) [kPa]	vapor or sublimation pressure (353.3 K) [kPa]	vapor or sublimation pressure (371.4 K) [kPa]	vapor or sublimation pressure (383.4 K) [kPa]	vapor or sublimation pressure (417.5 K) [kPa]
Cc1ccccc1 [toluene]	862.18 ± 0.24	110.2 ± 1				101.3 ± 1.1	
c1ccccc1 [benzene]	873.66 ± 0.24	80.2 ± 1		101.3 ± 1.1			
Cc1ccccc1C [1,2-dimethylbenzene]	875.66 ± 0.24	144.4 ± 1					101.3 ± 1.1

The next lines start with results.

mass density [kg/m3]	Normal boiling temperature [°C]	vapor or sublimation pressure (423.8 K) [kPa]	vapor or sublimation pressure (353.3 K) [kPa]	vapor or sublimation pressure (371.4 K) [kPa]	SMILES	vapor or sublimation pressure (383.4 K) [kPa]	vapor or sublimation pressure (417.5 K) [kPa]
714.07 ± 0.24	150.7 ± 1	101.3 ± 1.1			CCCCCCCCC [nonane]		
679.52 ± 0.24	98.2 ± 1			101.3 ± 1.1	CCCCCCC [heptane]		
